The target of assay [1] is purified human autoBACE-2 (Homo sapiens (Human), UniProt Q9Y5Z0). In words: BACE-2 Assay (BACE-HTRF assay). Type of assay: biochemical. Particulars: Ki calculated from IC50 using the Cheng-Prusoff equation; QSY7-EISEVNLDAEFC-Eu-amide substrate, pH 5.0. As for the experimental part: Inhibitor IC50s at purified human autoBACE-2 are determined in a time-resolved endpoint proteolysis assay that measures hydrolysis of the QSY7-EISEVNLDAEFC-Eu-amide FRET peptide substrate (BACE-HTRF assay). BACE-mediated hydrolysis of this peptide results in an increase in relative fluorescence (RFU) at 620 nm after excitation with 320 nm light. Inhibitor compounds, prepared at 3× the desired final concentration in 1×BACE assay buffer (20 mM sodium acetate pH 5.0, 10% glycerol, 0.1% Brij-35) supplemented with 7.5% DMSO are preincubated with an equal volume of autoBACE-2 enzyme diluted in 1×BACE assay buffer (final enzyme concentration 1 nM) in black 384-well NUNC plates for 30 minutes at 30° C. […] DMSO is present at 5% final concentration in the assay. Following laser excitation of sample wells at 320 nm, the fluorescence signal at 620 nm is collected for 400 ms following a 50 μs delay on a RUBYstar HTRF plate reader (BMG Labtechnologies). Raw RFU data is normalized to maximum (1.0 nM BACE/DMSO) and minimum (no enzyme/DMSO) RFU values. IC50s are determined by nonlinear regression analysis (sigmoidal dose response, variable slope) of percent inhibition data with minimum and maximum values set to 0 and 100 percent respectively. Similar IC50s are obtained when using raw RFU data. The Ki values are calculated from the IC50 using the Cheng-Prusoff equation.

Assay [2] addresses Recombinant human soluble BACE1 catalytic domain (Homo sapiens (Human), UniProt P56817). The experiment in a line: BACE1 HTRF FRET Assay. Particulars: Ki calculated from IC50 using the Cheng-Prusoff equation; QSY7-APPswe-Eu substrate, pH 5.0; read-out: BACE-1 Ki. Format: biochemical. An excerpt: Reagents: Na^+-Acetate pH 5.0; 1% Brij-35; Glycerol; Dimethyl Sulfoxide (DMSO); Recombinant human soluble BACE1 catalytic domain (>95% pure); APP Swedish mutant peptide substrate (QSY7-APP^swe-Eu): QSY7-EISEVNLDAEFC-Europium-amide.
A homogeneous time-resolved FRET assay can be used to determine IC50 values for inhibitors of the soluble human BACE1 catalytic domain. This assay monitors the increase of 620 nm fluorescence that resulted from BACE1 cleavage of an APPswedish APP^swe mutant peptide FRET substrate (QSY7-EISEVNLDAEFC-Europium-amide). This substrate contains an N-terminal QSY7 moiety that serves as a quencher of the C-terminal Europium fluorophore (620 nm Em). In the absence of enzyme activity, 620 nm fluorescence is low in the assay and increased linearly over 3 hours in the presence of uninhibited BACE1 enzyme. Inhibition of BACE1 cleavage of the QSY7-APP^swe-Eu substrate by inhibitors is manifested as a suppression of 620 nm fluorescence.
Varying concentrations of inhibitors at 3× the final desired concentration in a volume of 10 ul are preincubated with purified human BACE1 catalytic domain (3 nM in 10 μl) for 30 minutes at 30° C. in reaction buffer containing 20 mM Na-Acetate pH 5.0, 10% glycerol, 0.1% Brij-35 and 7.5% DSMO. Reactions are initiated by addition of 10 μl of 600 nM QSY7-APP^swe-Eu substrate (200 nM final) to give a final reaction volume of 30 μl in a 384 well Nunc HTRF plate. The reactions are incubated at 30° C. for 1.5 hours. The 620 nm fluorescence is then read on a Rubystar HTRF plate reader (BMG Labtechnologies) using a 50 millisecond delay followed by a 400 millisecond acquisition time window. Inhibitor IC50 values are derived from non-linear regression analysis of concentration response curves. Ki values are then calculated from IC50 values using the Cheng-Prusoff equation using a previously determined […] of 8 μM for the QSY7-APP^swe-Eu substrate at BACE1.

Sequence of Recombinant human soluble BACE1 catalytic domain (P56817 75-416): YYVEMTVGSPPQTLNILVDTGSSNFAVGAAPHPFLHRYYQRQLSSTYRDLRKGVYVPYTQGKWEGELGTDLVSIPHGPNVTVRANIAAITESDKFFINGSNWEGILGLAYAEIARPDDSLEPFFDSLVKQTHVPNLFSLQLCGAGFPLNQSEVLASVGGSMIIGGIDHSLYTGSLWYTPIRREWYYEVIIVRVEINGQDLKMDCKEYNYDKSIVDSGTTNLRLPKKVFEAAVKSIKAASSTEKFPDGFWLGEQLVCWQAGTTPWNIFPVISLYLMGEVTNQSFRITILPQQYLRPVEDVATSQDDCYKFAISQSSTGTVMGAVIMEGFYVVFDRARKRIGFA
Sequence of purified human autoBACE-2 (Q9Y5Z0 63-518): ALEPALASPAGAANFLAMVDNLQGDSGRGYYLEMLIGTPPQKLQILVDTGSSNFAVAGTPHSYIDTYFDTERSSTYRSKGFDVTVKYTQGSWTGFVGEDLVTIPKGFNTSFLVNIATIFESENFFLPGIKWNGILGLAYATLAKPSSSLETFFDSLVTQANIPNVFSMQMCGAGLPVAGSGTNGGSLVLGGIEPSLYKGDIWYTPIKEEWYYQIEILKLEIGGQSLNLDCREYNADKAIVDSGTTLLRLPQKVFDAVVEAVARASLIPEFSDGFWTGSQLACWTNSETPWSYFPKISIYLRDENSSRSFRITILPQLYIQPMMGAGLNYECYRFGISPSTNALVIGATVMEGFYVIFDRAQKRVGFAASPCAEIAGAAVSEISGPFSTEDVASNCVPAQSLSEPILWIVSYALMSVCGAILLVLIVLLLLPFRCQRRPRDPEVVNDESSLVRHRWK

With `CC1(C)C[C@@H]2[C@](c3cc(Oc4cc(F)cnc4F)ccc3F)(CO1)NC(=N)C(C)(C)S2(=O)=O` [Example 21, (4aS,8aR)-4a-{5-[(2,5-difluoropyridin-3-yl)oxy]-2-fluorophenyl}-2,2,7,7-tetramethyltetrahydro-2H,5H-pyrano[4,3-b][1,4]thiazin-3(4H)-imine 1,1-dioxide], the Ki (commonly the dissociation constant of the complex between target and ligand, obtained from inhibition or displacement) is 88 nM in assay [1] and 9.7 nM in assay [2].

For the compound `CC1(C)C[C@@H]2[C@](c3cc(OCC4CC4)ccc3F)(CO1)NC(=N)C(C)(C)S2(=O)=O` [Example 22, (4aS,8aR)-4a-[5-(cyclopropylmethoxy)-2-fluorophenyl]-2,2,7,7-tetramethyltetrahydro-2H,5H-pyrano[4,3-b][1,4]thiazin-3(4H)-imine 1,1-dioxide], the figures for the Ki in assay [1] and in assay [2] were 35.6 nM and 120 nM, respectively.

On to `CC(C)COc1ccc(F)c([C@]23COC(C)(C)C[C@H]2S(=O)(=O)C(C)(C)C(=N)N3)c1` [Example 23, (4aS,8aR)-4a-[2-fluoro-5-(2-methylpropoxy)phenyl]-2,2,7,7-tetramethyltetrahydro-2H,5H-pyrano[4,3-b][1,4]thiazin-3(4H)-imine 1,1-dioxide], for which the values for the Ki in assay [1] and in assay [2] were 66.7 nM and 172 nM, respectively.

Take `CC1(C)C[C@@H]2[C@](c3cc(OC4CCC4)ccc3F)(CO1)NC(=N)C(C)(C)S2(=O)=O` [Example 24]: the figures for the inhibition constant Ki in assay [1] and in assay [2] were 109 nM and 183 nM, respectively.

For the compound `CC(C)[C@H]1C[C@@H]2[C@](c3ccccc3F)(CO1)NC(=N)C(C)(C)S2(=O)=O` [Example 25, (4aS,7R,8aR)-4a-(2-fluorophenyl)-2,2-dimethyl-7-(propan-2-yl)tetrahydro-2H,5H-pyrano[4,3-b][1,4]thiazin-3(4H)-imine 1,1-dioxide], the Ki in assay [1] was 195 nM; in assay [2], 185 nM.
